Here are results for one compound from patent US7192932B1, “Use of immunomodulating agents” (Lauras AS, priority 1997, dated 2007).

Where “and” joins values, the source holds several entries; their conditions need not be identical. Identical values can stand only once. Marks after values point to notes of the source that are not given here.

Test [1] relates to peripheral blood CD3+ T cells. In words: TCR/CD3 (anti-CD3) stimulated T cell proliferation, [3H]-thymidine incorporation. Type of test: cell-based, human. Here is the method:
(§1) Human peripheral blood CD3+ T cells were purified by negative selection from 50 ml of heparin-treated blood from normal healthy donors (Ullevaal University Hospital Blood Center, Oslo. Norway) or patients. Briefly, peripheral blood mononuclear cells were isolated by density gradient (Lymphoprep, NycoMed, Oslo, Norway) centrifugation followed by negative selection using monodisperse magnetic beads directly coated with antibodies to CD14 and CD19 and rat anti-mouse IgG beads coated with antibodies to CD56 and a magnet. Magnetic beads were all from Dynal (Oslo, Norway, cat. no. 111.12, 111.04, and 110.11. respectively) whereas anti-CD56 antibody was from Pharmingen (San Diego, Calif., cat. no. 31660.d). All steps were performed at 4° C.
as §1, with “Peripheral blood” for “Human peripheral blood”, “Center, Oslo,” for “Center, Oslo.”, “selection using,” for “selection using”, “and 110.11,” for “and 110.11.”, “Calif., eat.” for “Calif., cat.”
Proliferation assays were performed by incubation of 0.75×10^6 CM+ T cells/ml in a 100 μl volume in that-bottom 96-well microtiter plates. Activation was achieved by subsequent addition of monodisperse magnetic beads coated with sheep anti-mouse IgG (Dynal. cat. no. 110.02) at a cell:bead ratio of 1:1 followed by addition of antiCD3 (clone SpvT3b) at a final dilution of 1:125,000 for the experiments shown. The optimal concentration of antibody was titrated carefully in the initial setup and parallel experiments at several different dilutions of antibody was always performed. Proliferation was analyzed by incubating, cells for 72 hours during which [^3H]thymidine was included for the last 16 hours. Cells were washed and harvested onto filters using a Scatron harvester (Suffolk, UK) and subsequently analyzed by β-scintillation counting. cAMP analogs, when used, were added 30 min prior to activation by addition of […] antibodies. 8-CPT-cAMP was from Sigorna (St. Louis, Mo.) and Sp- and Rp-8-Br-cAMPS were from BioLog Life Science Company (Bremen, Germany) and were all dissolved to concentrations of 4 to 10 mM in PBS and concentrations calculated using the extinction coefficients given by the manufacturer.

Test [2] deals with peripheral blood CD3+ T cells. In words: TCR/CD3 stimulated proliferation of liposome-transfected CD3+ T cells treated with 8-CPT-cAMP. In kind it is cell-based, human. The following applies: for IC50: FIG. 10. The method, then:
FIG. 8. Reversal of cAMP-mediated inhibition of TUR/CD3 stimulated T cell proliferation by the use of ribozyme to the RIα subunit of protein kinase A type I. TCR/CD3 stimulated proliferation of peripheral blood CD3+ T cells from normal healthy blood donor following treatment with liposomes alone (mock) or with liposomes and RIα ribozyme (RIα rbz, 10 μM) in the absence (solid bars) and presence (open bars) of 8-CPT-cAMP (12,5 μM).
FIG. 9. Reversal of cAMP-mediated inhibition of TCR/CD3 stimulated T cell proliferation by the use of competitor peptide to compete the TCR/CD3 associated anchoring of RIα subunit of protein kinase A type I in T cells. TCR/CD3 stimulated proliferation of peripheral blood CD3+ T cells from normal healthy blood donor following treatment with liposomes alone (mock) or with increasing concentrations (25 to 100 μM) of a competitor peptide (Ht-31) that competes anchoring, to PKA type II or a control peptide (Ht31-P).
FIG. 10. TCR/CD3 stimulated proliferation of peripheral blood CD3+ T cells in the presence of increasing, concentrations of 8-CPT-cAMP. Normalized levels of proliferation of T cells mock transfected with liposomes only (solid circles, continuous line) or incubated with liposomes and Ht31 peptide (35 μM) to compete anchoring of protein kinase A type I (open circles, dotted line) was assessed as [^3H]-thymidine incorporation after 48 h during which [^3H]-thymidine was added for the last 18 h. Note: right shift of the IC50 (arrow) from 1,8 to 4,8 μM in the presence of […].
When transfected as synthetic RNA ribozyme or as a synthetic RNA ribozyme stabilized by incorporation of 2-deoxycytosine and 2-deoxy-uracil analogs into peripheral blood CD3+ T cells, the ribozyme reduced levels of RIα protein to approximately 20% of control levels by removing the RIα mRNA. By this strategy, the majority of protein kinase A type 1 was removed from the T cells. We then assessed the immune responsiveness of CD3+ T cells transfected with ribozyme compared to control (mock) transfected T cells measured as T cell proliferation after activation of T cells by stimulation of the T cell receptor/CD3 complex (TCR/CD3). In order to simulate a T cell dysfunction as that of HIV infection, with elevated levels of cAMP and increased activation of protein kinase A type 1, we treated normal T cells with low dose (12.5 around IC50) of the cAMP analog 8-(4-chlorophenyl)-thio-cAMPS (8-CPT-cAMP). […] For in vivo use pretreatment of ribozymes to allow cellular uptake or introduction into cells as minigenes will be necessary.
We incubated blood CD3+ T cells with increasing concentrations of Ht31 (SEQ. ID. NO 2) peptide. In order to facilitate uptake, cells were treated with liposomes in the presence or absence of-peptide. The optimal concentrations of DOTAP liposomes and anti-CD3 antibody were titrated carefully in order to maintain the membrane stability and normal TCR/CD3-dependent activation of the T cells. Cells were incubated for 20 hours with DOTAP/peptide and incubations continued in the absence (solid bars) or presence of 8-CPT-cAMP (6.25 μM, hatched bars) and activated to proliferation by stimulation of TCR/CD3 T cell immune responsiveness was assessed as [3H]thymidine incorporation.
Next, the effect of the competitor peptide (Ht-31, 35 μM) on T cell proliferation was examined in the presence of increasing concentrations of 8-CPT-cAMP and compared to mock transfected cells treated with the same concentrations of 8-CPT-cAMP (FIG. 10). As shown previously for normal peripheral blood T cells. […] Compared to the left-shifted curves observed with T cells from HIV-infected patients or patients with CIV due to elevated levels of endogenous cAMP activating PKA type 1, the right-shift observed here would be expected to normalize the situation in patients.

On to `Nc1ncnc2c1nc(Sc1ccc(Cl)cc1)n2[C@@H]1O[C@@H]2COP(=O)(O)O[C@H]2[C@H]1O` [8-CPT-cAMP, 8-(4-chlorophenylthio)cAMP, reference compound], for which, in test [1] (T cells from HIV seropositive individuals, n=18), the “Hill coefficient of cAMP-inhibition curve” value is 1.19 (1.13–1.40). Further, the “Inhibition of proliferation by 8-CPT-cAMP Hill coefficient” value was 1.18(1.09–1.36)^b in test [1] (T cells from HIV+ asymptomatic patients, n = 8, median (25 to 75% range)); 1.19(1.13–1.40)^o in test [1] (T cells from HIV+ symptomatic patients, n = 10, median (25 to 75% range)); 1.59(1.40–1.81) in test [1] (T cells from normal controls, n = 8, median (25 to 75% range)); 1.35(1.33–1.68) in test [1] (T cells from patients on triple combination therapy, n = 9, median (25 to 75% range)). For the same compound, the IC50 in test [1] (T cells from HIV+ asymptomatic patients, n = 8, median (25 to 75% range), read-out: Inhibition of proliferation by 8-CPT-cAMP IC50) was 2260 nM; in test [1] (T cells from HIV+ symptomatic patients, n = 10, median (25 to 75% range), read-out: Inhibition of proliferation by 8-CPT-cAMP IC50), 1870 nM; in test [1] (T cells from a healthy blood donor, FIG. 1B, read-out: IC50, inhibition of TCR/CD3 stimulated proliferation), 6110 nM; in test [1] (T cells from a representative HIV-infected patient (#10 in Table 2a), FIG. 1B, read-out: IC50, inhibition of TCR/CD3 stimulated proliferation), 1780 nM; in test [1] (T cells from normal controls, n = 8, median (25 to 75% range), read-out: Inhibition of proliferation by 8-CPT-cAMP IC50), 4590 nM; in test [1] (T cells from patients on triple combination therapy, n = 9, median (25 to 75% range), read-out: Inhibition of proliferation by 8-CPT-cAMP IC50) it was 2590 nM. Further, the IC50 in test [1] (T cells of individual CVI patients #1-#7, read-out: Inhibition of proliferation by 8-CPT-cAMP (IC50)) is 3680 nM and 3360 nM and 3160 nM and 2660 nM and 2340 nM and 2980 nM and 2260 nM; in test [1] (median in 7 CVI patients, read-out: Inhibition of proliferation by 8-CPT-cAMP (IC50)), 2980 nM; in test [1] (median in 8 healthy controls, read-out: Inhibition of proliferation by 8-CPT-cAMP (IC50)) it was 4590 nM; in test [1] (one healthy control, FIG. 4B, read-out: IC50, inhibition of anti-CD3 stimulated T lymphocyte proliferation), 4660 nM; in test [1] (one representative CVI patient, FIG. 4B, read-out: IC50, inhibition of anti-CD3 stimulated T lymphocyte proliferation) it was 2260 nM; in test [2] (normal T cells incubated with liposomes and Ht31 peptide (35 μM), read-out: apparent IC50, inhibition of TCR/CD3 stimulated proliferation), 4800 nM. The IC50 in test [2] (normal T cells mock transfected with liposomes only, read-out: IC50, inhibition of TCR/CD3 stimulated proliferation) was ~1800 nM and 1800 nM. Moreover, the “Inhibition of proliferation by 8-CPT-cAMP (−Hill coefficient)” value was 1.34 and 1.38 and 2.03 and 1.39 and 1.46 and 1.47 and 1.26 in test [1] (T cells of individual CVI patients #1-#7); 1.39^§ in test [1] (median in 7 CVI patients); 1.59 in test [1] (median in 8 healthy controls). Further, the “T cell proliferation in presence of cAMP analog” value in test [2] (mock transfected normal T cells, 8-CPT-cAMP 12.5 μM, FIG. 8) was “approximately 20 % of control”.
